# Measured values as given in paper PMC5218480 (PLoS ONE, 2017).
# Tested on: MV-4-11 cells
# Assay: Gene expression microarray analysis (Affymetrix PrimeView) and GSEA
# Assay type: cell-based, human
# Parameters: RFU PODN (11730768_x_at) / Fold change /veh PODN (11730768_x_at) / RFU LINC00158 (11744669_a_at) / Fold change /veh LINC00158 (11744669_a_at) / RFU DUSP10 (11751237_a_at) / Fold change /veh DUSP10 (11751237_a_at) / RFU ID3 (11757404_x_at) / Fold change /veh ID3 (11757404_x_at) / RFU PLEKHG5 (11737974_s_at) / Fold change /veh PLEKHG5 (11737974_s_at) / RFU LRRC4B (11730491_at) / Fold change /veh LRRC4B (11730491_at) / RFU GIMAP4 (11747438_a_at) / Fold change /veh GIMAP4 (11747438_a_at) / RFU KRT8 (11758183_x_at) / Fold change /veh KRT8 (11758183_x_at) / RFU CNN1 (11734310_a_at) / Fold change /veh CNN1 (11734310_a_at) / RFU VPS37D (11726825_at) / Fold change /veh VPS37D (11726825_at) / RFU C10orf10 (11716522_x_at) / Fold change /veh C10orf10 (11716522_x_at) / RFU KIR2DL2 /// KIR2DL4 /// KIR2DL5A /// KIR2DL5B /// KIR2DS1 /// KIR2DS2 /// KIR2DS3 /// KIR2DS4 /// KIR3DL3 /// KIR3DL3 /// KIR3DS1 (11738374_at) / Fold change /veh KIR2DL2 /// KIR2DL4 /// KIR2DL5A /// KIR2DL5B /// KIR2DS1 /// KIR2DS2 /// KIR2DS3 /// KIR2DS4 /// KIR3DL3 /// KIR3DL3 /// KIR3DS1 (11738374_at) / RFU C1QL1 (11718748_at) / Fold change /veh C1QL1 (11718748_at) / RFU TMPRSS4 (11747572_a_at) / Fold change /veh TMPRSS4 (11747572_a_at) / RFU HAMP (11756126_x_at) / Fold change /veh HAMP (11756126_x_at) / RFU RNFT2 (11725882_a_at) / Fold change /veh RNFT2 (11725882_a_at) / RFU NR4A2 (11747474_a_at) / Fold change /veh NR4A2 (11747474_a_at) / RFU ABCC12 (11746883_a_at) / Fold change /veh ABCC12 (11746883_a_at) / RFU TMEM136 (11760407_x_at) / Fold change /veh TMEM136 (11760407_x_at) / RFU CLDN22 /// WWC2 (11732394_at) / Fold change /veh CLDN22 /// WWC2 (11732394_at) / RFU HLA-DPB1 (11760878_x_at) / Fold change /veh HLA-DPB1 (11760878_x_at) / RFU SPINT1 (11716480_a_at) / Fold change /veh SPINT1 (11716480_a_at) / RFU GAP43 (11754022_s_at) / Fold change /veh GAP43 (11754022_s_at) / RFU A4GNT (11735810_at) / Fold change /veh A4GNT (11735810_at) / RFU PRB3 (11715151_x_at) / Fold change /veh PRB3 (11715151_x_at) / RFU TUBB4B (11761932_at) / Fold change /veh TUBB4B (11761932_at) / RFU CAPN14 (11732068_a_at) / Fold change /veh CAPN14 (11732068_a_at) / RFU TMCC2 (11721928_a_at) / Fold change /veh TMCC2 (11721928_a_at) / RFU IRGQ (11745062_a_at) / Fold change /veh IRGQ (11745062_a_at) / RFU FAM174B (11720279_a_at) / Fold change /veh FAM174B (11720279_a_at) / RFU TMPRSS4 (11748680_a_at) / Fold change /veh TMPRSS4 (11748680_a_at) / RFU FAM212B (11763350_a_at) / Fold change /veh FAM212B (11763350_a_at) / RFU PLEKHG5 (11743358_a_at) / Fold change /veh PLEKHG5 (11743358_a_at) / RFU ZSCAN30 (11745921_a_at) / Fold change /veh ZSCAN30 (11745921_a_at) / RFU CMKLR1 (11741424_a_at) / Fold change /veh CMKLR1 (11741424_a_at) / RFU LOC101060620 /// MAPK8IP1 (11723275_at) / Fold change /veh LOC101060620 /// MAPK8IP1 (11723275_at) / RFU SPTSSB (11747773_x_at) / Fold change /veh SPTSSB (11747773_x_at) / RFU PRSS12 (11739890_at) / Fold change /veh PRSS12 (11739890_at) / RFU BIN1 (11741810_x_at) / Fold change /veh BIN1 (11741810_x_at) / RFU WNT11 (11732464_a_at) / Fold change /veh WNT11 (11732464_a_at) / RFU C10orf10 (11716521_a_at) / Fold change /veh C10orf10 (11716521_a_at) / RFU C5orf56 (11738089_at) / Fold change /veh C5orf56 (11738089_at) / RFU CYB561 (11721691_x_at) / Fold change /veh CYB561 (11721691_x_at) / RFU ANKRD19P (11752326_a_at) / Fold change /veh ANKRD19P (11752326_a_at) / RFU OR2T12 /// OR2T33 /// OR2T8 (11738714_s_at) / Fold change /veh OR2T12 /// OR2T33 /// OR2T8 (11738714_s_at) / RFU VCAN (11748164_a_at) / Fold change /veh VCAN (11748164_a_at) / RFU JSRP1 (11732532_at) / Fold change /veh JSRP1 (11732532_at) / RFU KRTAP10-11 (11738290_x_at) / Fold change /veh KRTAP10-11 (11738290_x_at) / RFU MYO3A (11730013_a_at) / Fold change /veh MYO3A (11730013_a_at) / RFU EBF3 (11725865_a_at) / Fold change /veh EBF3 (11725865_a_at) / RFU CAMK2N1 (11719241_x_at) / Fold change /veh CAMK2N1 (11719241_x_at) / RFU C5orf56 (11738088_a_at) / Fold change /veh C5orf56 (11738088_a_at) / RFU OLFML3 (11715873_a_at) / Fold change /veh OLFML3 (11715873_a_at) / RFU LOC100653217 /// NTM (11731650_a_at) / Fold change /veh LOC100653217 /// NTM (11731650_a_at) / RFU MAPK11 (11762145_a_at) / Fold change /veh MAPK11 (11762145_a_at) / RFU FIZ1 (11724087_x_at) / Fold change /veh FIZ1 (11724087_x_at) / RFU OASL (11726364_x_at) / Fold change /veh OASL (11726364_x_at) / RFU SOX15 (11748057_x_at) / Fold change /veh SOX15 (11748057_x_at) / RFU CD79A (11719716_a_at) / Fold change /veh CD79A (11719716_a_at) / RFU HIST1H1D (11736915_at) / Fold change /veh HIST1H1D (11736915_at) / RFU CASKIN2 (11723855_a_at) / Fold change /veh CASKIN2 (11723855_a_at) / RFU LOC730098 (11760151_x_at) / Fold change /veh LOC730098 (11760151_x_at) / RFU OR4N2 (11742367_at) / Fold change /veh OR4N2 (11742367_at) / RFU PRRT2 (11749266_a_at) / Fold change /veh PRRT2 (11749266_a_at) / RFU SNX32 (11753110_a_at) / Fold change /veh SNX32 (11753110_a_at) / RFU CDHR5 (11726645_a_at) / Fold change /veh CDHR5 (11726645_a_at) / RFU RCAN1 (11760418_a_at) / Fold change /veh RCAN1 (11760418_a_at) / RFU FAM167A (11723789_a_at) / Fold change /veh FAM167A (11723789_a_at) / RFU FAM26E (11764081_at) / Fold change /veh FAM26E (11764081_at) / RFU ISYNA1 (11749810_s_at) / Fold change /veh ISYNA1 (11749810_s_at) / RFU ACY1 (11761880_at) / Fold change /veh ACY1 (11761880_at) / RFU 11764098_at / Fold change /veh 11764098_at / RFU SAMD14 (11745864_x_at) / Fold change /veh SAMD14 (11745864_x_at) / RFU NPB (11741838_a_at) / Fold change /veh NPB (11741838_a_at) / RFU TMPRSS6 (11731388_a_at) / Fold change /veh TMPRSS6 (11731388_a_at) / RFU KRTAP10-2 (11738614_at) / Fold change /veh KRTAP10-2 (11738614_at) / RFU ARHGAP8 /// PRR5-ARHGAP8 (11727945_x_at) / Fold change /veh ARHGAP8 /// PRR5-ARHGAP8 (11727945_x_at) / RFU KRTAP5-7 /// NADSYN1 (11734609_at) / Fold change /veh KRTAP5-7 /// NADSYN1 (11734609_at) / RFU RASL12 (11751679_a_at) / Fold change /veh RASL12 (11751679_a_at) / RFU CDKN2B (11736163_a_at) / Fold change /veh CDKN2B (11736163_a_at) / RFU PRF1 (11729649_at) / Fold change /veh PRF1 (11729649_at) / RFU, ZNF638 /// ZNF638-IT1 / Fold change vs veh, ZNF638 /// ZNF638-IT1 / RFU, PANK3 / Fold change vs veh, PANK3 / RFU, SH3YL1 / Fold change vs veh, SH3YL1 / RFU, ZEB2 / Fold change vs veh, ZEB2 / RFU, NRIP1 / Fold change vs veh, NRIP1 / RFU, PTTG1IP / Fold change vs veh, PTTG1IP / RFU, CAPN2 / Fold change vs veh, CAPN2 / RFU, MED14 / Fold change vs veh, MED14 / RFU, SNORA58 / Fold change vs veh, SNORA58 / RFU, C1orf63 / Fold change vs veh, C1orf63 / RFU, LRRFIP1 / Fold change vs veh, LRRFIP1 / RFU, NDUFAF7 / Fold change vs veh, NDUFAF7 / RFU, SLC12A2 / Fold change vs veh, SLC12A2 / RFU, IBTK / Fold change vs veh, IBTK / RFU, ESF1 / Fold change vs veh, ESF1 / Fold change vs veh, TMEM50B / RFU, TAOK1 / Fold change vs veh, TAOK1 / RFU, ACBD3 / Fold change vs veh, ACBD3 / RFU, TMA16 / Fold change vs veh, TMA16 / RFU, RWDD3 / Fold change vs veh, RWDD3 / RFU, BCAT1 / Fold change vs veh, BCAT1 / RFU, EDEM3 / Fold change vs veh, EDEM3 / RFU, TMEM33 / Fold change vs veh, TMEM33 / RFU, WDR75 / Fold change vs veh, WDR75 / RFU, AHCTF1 / Fold change vs veh, AHCTF1 / RFU, TFRC / Fold change vs veh, TFRC / RFU, ZDHHC17 / Fold change vs veh, ZDHHC17 / RFU, NOM1 / Fold change vs veh, NOM1 / RFU, ARL8B / Fold change vs veh, ARL8B / RFU, ZBTB11 / Fold change vs veh, ZBTB11 / RFU, TAMM41 / Fold change vs veh, TAMM41 / RFU, KIAA1704 /// LOC100996395 / Fold change vs veh, KIAA1704 /// LOC100996395 / RFU, ING1 / Fold change vs veh, ING1 / RFU, TRMT61B / Fold change vs veh, TRMT61B / RFU, FUBP3 / Fold change vs veh, FUBP3 / RFU, TP53 / Fold change vs veh, TP53 / RFU, TNKS2 / Fold change vs veh, TNKS2 / RFU, ZFP14 / Fold change vs veh, ZFP14 / RFU, ACTR2 / Fold change vs veh, ACTR2 / RFU, PPP3R1 / Fold change vs veh, PPP3R1 / RFU, PIK3R1 / Fold change vs veh, PIK3R1 / RFU, HNRNPA1 / Fold change vs veh, HNRNPA1 / RFU, RNF170 / Fold change vs veh, RNF170 / RFU, ZNF28 / Fold change vs veh, ZNF28 / RFU, RNGTT / Fold change vs veh, RNGTT / RFU, OGT / Fold change vs veh, OGT / RFU, BRD1 / Fold change vs veh, BRD1 / RFU, MARS / Fold change vs veh, MARS / RFU, ZNF655 / Fold change vs veh, ZNF655 / RFU, FAHD1 / Fold change vs veh, FAHD1 / RFU, BDP1 / Fold change vs veh, BDP1 / RFU, LRRCC1 / Fold change vs veh, LRRCC1 / RFU, ARID1A / Fold change vs veh, ARID1A / RFU, ZNF146 / Fold change vs veh, ZNF146 / RFU, ZNF330 / Fold change vs veh, ZNF330 / RFU, GPN3 / Fold change vs veh, GPN3 / RFU, C9orf123 / Fold change vs veh, C9orf123 / RFU, N4BP2L2 / Fold change vs veh, N4BP2L2 / RFU, ARFIP1 / Fold change vs veh, ARFIP1 / RFU, FAM179B / Fold change vs veh, FAM179B / RFU, BCL10 / Fold change vs veh, BCL10 / RFU, UHRF1BP1L / Fold change vs veh, UHRF1BP1L / RFU, BET1 / Fold change vs veh, BET1 / RFU, CNOT2 / Fold change vs veh, CNOT2 / RFU, ZNF268 / Fold change vs veh, ZNF268 / Fold change vs veh, ZNF507 / RFU, DGCR2 / Fold change vs veh, DGCR2 / RFU, WDSUB1 / Fold change vs veh, WDSUB1 / Fold change vs veh, HSP90B1 /// MIR3652 / RFU, ADSS / Fold change vs veh, ADSS / RFU, GK / Fold change vs veh, GK / RFU, ZNF148 / Fold change vs veh, ZNF148 / RFU, TAF9 / Fold change vs veh, TAF9 / RFU, SLC1A5 / Fold change vs veh, SLC1A5 / RFU, SLMO2 / Fold change vs veh, SLMO2 / RFU, ABCC4 / Fold change vs veh, ABCC4 / RFU, LOC101060439 /// RAP1B / Fold change vs veh, LOC101060439 /// RAP1B / RFU, RFX7 / Fold change vs veh, RFX7 / RFU, GTPBP10 / Fold change vs veh, GTPBP10 / RFU, CNEP1R1 / Fold change vs veh, CNEP1R1 / RFU, BIVM-ERCC5 /// ERCC5 / Fold change vs veh, BIVM-ERCC5 /// ERCC5 / RFU, ILF3 / Fold change vs veh, ILF3 / RFU 11762660_at / Fold change /veh 11762660_at / RFU VCAN (11757783_s_at) / Fold change /veh VCAN (11757783_s_at) / RFU DDX43 (11728927_at) / Fold change /veh DDX43 (11728927_at) / RFU KRT8 (11758188_x_at) / Fold change /veh KRT8 (11758188_x_at) / RFU NKD1 (11759106_at) / Fold change /veh NKD1 (11759106_at) / RFU SRD5A1 (11742802_a_at) / Fold change /veh SRD5A1 (11742802_a_at) / RFU TPSAB1 /// TPSB2 (11721975_s_at) / Fold change /veh TPSAB1 /// TPSB2 (11721975_s_at) / RFU GSTM3 (11746129_a_at) / Fold change /veh GSTM3 (11746129_a_at) / RFU IL23R (11737362_x_at) / Fold change /veh IL23R (11737362_x_at) / RFU TMEM51 (11727254_a_at) / Fold change /veh TMEM51 (11727254_a_at) / RFU PIWIL2 (11732686_x_at) / Fold change /veh PIWIL2 (11732686_x_at) / RFU ORM1 (11744905_x_at) / Fold change /veh ORM1 (11744905_x_at) / RFU CCDC152 (11743942_at) / Fold change /veh CCDC152 (11743942_at) / RFU ECM1 (11717891_a_at) / Fold change /veh ECM1 (11717891_a_at) / RFU IL23R (11748794_a_at) / Fold change /veh IL23R (11748794_a_at) / RFU TNFAIP8L3 (11732012_x_at) / Fold change /veh TNFAIP8L3 (11732012_x_at) / RFU MBOAT4 (11741988_at) / Fold change /veh MBOAT4 (11741988_at) / RFU 11764193_at / Fold change /veh 11764193_at / RFU TMEM53 (11763286_at) / Fold change /veh TMEM53 (11763286_at) / RFU MAGEB2 (11727129_at) / Fold change /veh MAGEB2 (11727129_at) / RFU TMEM200A (11744735_a_at) / Fold change /veh TMEM200A (11744735_a_at) / RFU CCDC152 (11751479_a_at) / Fold change /veh CCDC152 (11751479_a_at) / RFU FAM211A (11726209_a_at) / Fold change /veh FAM211A (11726209_a_at) / RFU RGS16 (11746705_a_at) / Fold change /veh RGS16 (11746705_a_at) / RFU VCAN (11755009_s_at) / Fold change /veh VCAN (11755009_s_at) / RFU RHOB (11743442_s_at) / Fold change /veh RHOB (11743442_s_at) / RFU RGS16 (11720943_a_at) / Fold change /veh RGS16 (11720943_a_at) / RFU RGS16 (11720944_at) / Fold change /veh RGS16 (11720944_at) / RFU, VPS4B / Fold change vs veh, VPS4B / RFU, CREB1 / Fold change vs veh, CREB1 / RFU, DNAJC13 / Fold change vs veh, DNAJC13 / RFU, GNAQ / Fold change vs veh, GNAQ / RFU, CDK5R1 / Fold change vs veh, CDK5R1 / RFU, ZRANB3 / Fold change vs veh, ZRANB3 / RFU, CUL4A / Fold change vs veh, CUL4A / RFU, CCNY / Fold change vs veh, CCNY / RFU, UFL1 / Fold change vs veh, UFL1 / RFU, COG3 / Fold change vs veh, COG3 / RFU, DIAPH2 / Fold change vs veh, DIAPH2 / RFU, SKA2 / Fold change vs veh, SKA2 / RFU, AFF3 / Fold change vs veh, AFF3 / RFU, LMF1 / Fold change vs veh, LMF1 / RFU, IPO11 / Fold change vs veh, IPO11 / RFU, DFFB / Fold change vs veh, DFFB / RFU, FOXP1 / Fold change vs veh, FOXP1 / RFU, CARD8 / Fold change vs veh, CARD8 / RFU, STRN3 / Fold change vs veh, STRN3 / RFU, ADK / Fold change vs veh, ADK / RFU, RASSF2 / Fold change vs veh, RASSF2 / RFU, WIPF1 / Fold change vs veh, WIPF1 / RFU, LARP1B / Fold change vs veh, LARP1B / RFU, RASA1 / Fold change vs veh, RASA1 / RFU, RB1 / Fold change vs veh, RB1 / RFU, PPFIA1 / Fold change vs veh, PPFIA1 / RFU, MAT2A / Fold change vs veh, MAT2A / RFU, CCT5 / Fold change vs veh, CCT5 / RFU, WDR92 / Fold change vs veh, WDR92 / RFU, CUX1 / Fold change vs veh, CUX1 / RFU, TTC7A / Fold change vs veh, TTC7A / RFU, TMEM135 / Fold change vs veh, TMEM135 / RFU, DEPTOR / Fold change vs veh, DEPTOR / RFU, CPM / Fold change vs veh, CPM / RFU, DNAJB6 / Fold change vs veh, DNAJB6 / RFU, CACNA2D3 / Fold change vs veh, CACNA2D3 / RFU, DTX4 / Fold change vs veh, DTX4 / RFU, TFCP2 / Fold change vs veh, TFCP2 / RFU, GMCL1 /// GMCL1P1 / Fold change vs veh, GMCL1 /// GMCL1P1 / RFU, AEBP2 / Fold change vs veh, AEBP2 / RFU, SNHG1 /// SNORD22 /// SNORD25 /// SNORD26 /// SNORD27 /// SNORD28 /// SNORD29 /// SNORD31 / Fold change vs veh, SNHG1 /// SNORD22 /// SNORD25 /// SNORD26 /// SNORD27 /// SNORD28 /// SNORD29 /// SNORD31 / Fold change (Aza/veh), C12orf56 (ProbeSet 11735607_a_at) / Fold change (ACY-1035/veh), C12orf56 (ProbeSet 11735607_a_at) / Fold change (Aza/veh), FGFR1OP (ProbeSet 11751329_s_at) / Fold change (ACY-1035/veh), FGFR1OP (ProbeSet 11751329_s_at) / Fold change (Aza/veh), VPS36 (ProbeSet 11739960_a_at) / Fold change (ACY-1035/veh), VPS36 (ProbeSet 11739960_a_at) / RFU SYPL1 (11715823_x_at) / Fold change /veh SYPL1 (11715823_x_at) / RFU IGFBP7 (11715501_s_at) / Fold change /veh IGFBP7 (11715501_s_at) / RFU REEP3 (11722064_at) / Fold change /veh REEP3 (11722064_at) / RFU IGLL1 (11728026_x_at) / Fold change /veh IGLL1 (11728026_x_at): dose or concentration left out as unconfirmed
# Settings: ProbeSet 11756954_s_at; LIST B
smiles,measurement,value
Nc1ccc(-c2cccs2)cc1NC(=O)c1ccc2c(c1)cc(C1CC1)n2CCN1CCOCC1 [ACY-1035],"RFU, ZEB2",1361.36 RFU
